According to BindingDB's records for doi:10.1016/j.bmcl.2012.05.114 (Vertex Pharmaceuticals, 2012):

Target: Tyrosine-protein kinase SYK (Homo sapiens) (UniProt P43405)
Assay: Inhibition of SYK

- Ki: > 4 µM
SMILES: CC(C)C[C@H]1CN(c2ccc(C(F)(F)F)c(C(=O)c3cccnc3N)n2)CCN1
